Reference: patent publication US20220127267A1, “THIENO[3,2-B] PYRROLE[3,2-D]PYRIDAZINONE DERIVATIVES AND THEIR USE AS PKM2 DERIVATIVES FOR THE TREATMENT OF CANCER, OBESITY AND DIABETES RELATED DISORDERS” (Agios Pharmaceuticals, Inc., priority 2019, published 2022)

Tests used:
RBCs = assay: Cell Based ATP Assay in purified red blood cells (Cell-Titer-Glo); design: species or system human; details: wild type PKR, ATP levels in RBCs, overnight at 37° C.; for AC50: Homo sapiens, Erythrocyte
Description: Fresh blood drawn from healthy volunteers into K2EDTA tubes was collected. Whole blood was pelleted by spinning at 500 g for 10 minutes. The transfusion bag port was cut off Purecell leukocyte reduction neofilter (Fisher NC0267633) one (1) inch above filter. A 10 ml syringe barrel was attached to the remaining cut tubing attached to the neofilter. The plasma layer was removed from the pellet of the whole blood and the pellet was resuspended in 2× volume of phosphate buffered saline (PBS). 9 ml re-suspended blood cell pellet was transferred to a 10 ml syringe that was attached to the neofilter. The whole blood was allowed to gravity flow through filter until all fluid ran through upper tubing into a filter disc. The plunger was added to the syringe. The filter was inverted and air was plunged through the syringe filter system. A new 5 ml syringe was used to remove filtered RBCs from the bag by the syringe port. Purified RBCs were transferred to a 5 ml snap cap tube that had been incubated on ice. The 5 ml snap cap tube was spun at 500 g for 10 minutes at 15 C. Supernatant was aspirated and resuspended in AGAM (1×PBS, 1% glucose, 170 mg/L adenine, 5.25 g/L mannitol) at a density of 4×10^9 cells/mL.
For cell based ATP assays, the compound as described herein was prepared in 100% DMSO as a 10 mM stock. Serial dilutions (1:4) were performed in 96-well V-bottom storage plate and then added 1:100 to 96-well V-bottom plates containing AGAM. 10 μL/well of compound diluted in AGAM was added to black clear bottom assay plates. RBCs were diluted in AGAM media to a density of 1×10^7 cells/mL before added 90 μL/well to black clear bottom assay plates (final compound concentration at 0.1% DMSO concentration). Assay plates were sealed using aluminum foil seals and incubated overnight at 37° C. in a humidified chamber. ATP levels were read out using Cell-Titer-Glo (Promega).

PK R510Q = PK R510Q (Homo sapiens, UniProt P30613, R510Q); assay: PKR Mutant Assay (R510Q), LDH-coupled, absorbance 340 nm; type: biochemical; details: mutant PKR R510Q enzyme activation
Chain of PK R510Q (P30613 whole entry R510Q): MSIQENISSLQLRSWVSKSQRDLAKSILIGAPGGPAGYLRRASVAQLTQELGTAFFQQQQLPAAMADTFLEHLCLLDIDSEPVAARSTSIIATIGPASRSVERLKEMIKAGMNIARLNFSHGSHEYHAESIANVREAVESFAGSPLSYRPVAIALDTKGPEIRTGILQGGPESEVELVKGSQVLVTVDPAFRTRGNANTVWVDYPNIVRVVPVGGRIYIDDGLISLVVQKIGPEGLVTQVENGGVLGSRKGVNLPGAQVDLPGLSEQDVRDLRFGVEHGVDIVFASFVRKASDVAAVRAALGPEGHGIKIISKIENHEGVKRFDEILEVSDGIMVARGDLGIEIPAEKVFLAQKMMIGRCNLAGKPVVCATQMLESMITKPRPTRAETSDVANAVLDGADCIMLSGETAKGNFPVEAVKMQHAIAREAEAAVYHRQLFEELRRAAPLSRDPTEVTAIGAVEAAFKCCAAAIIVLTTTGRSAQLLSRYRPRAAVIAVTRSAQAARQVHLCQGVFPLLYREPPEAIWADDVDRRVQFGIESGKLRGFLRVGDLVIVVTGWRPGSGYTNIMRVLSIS
Description: (§1) PKR (WT or mutant) enzyme stock solution was diluted to prepare a 1.25× Reaction Mix (without ADP). 1 μL of test compound was first added to the wells followed by 40 μL of 1.25× Reaction Mix (without ADP) and incubated at room temperature (25° C.) for 60 min. The reaction was initiated with 10 μL ADP, bringing the final Reaction Mix to 1x, and the reaction progress was measured as changes in absorbance at 340 nm wavelength at room temperature.
(§2) Test compound preparation: Test compounds were prepared at 50× final concentration in DMSO. 1 to 3 dilutions were made for 11 points (for example 50 μL of 5000 μM compound was added to 100 μL 100% DMSO to yield a 1667 μM, 50 μL of this added to 100 μL DMSO to yield 556 μM, and so forth). The compounds were added to the assay as a 1 to 50 dilution (1 μL in 50 μL) to yield a top concentration of 100 μM, decreasing 3-fold for 11 points.
(§3) Reaction Mix: PKR (1.25-1000 ng/well, 0.025-20 μg/ml depending on the PKR mutant), ADP (0.05-2.3 mM depending on the PKR mutant), PEP (0.031-2 mM depending on the PKR mutant), NADH (180 μM), LDH (0.005 U/μL, Sigma #L3888), 1 mM DTT, 0.03% BSA in 1× Reaction Buffer
(§4) Reaction Buffer: 100 mM KCl, 50 mM Tris pH 7.5, 5 mM MgCl2.

PKR K410E = PKR K410E (Homo sapiens, UniProt P30613, K410E); assay: PKR Mutant Assay (K410E), LDH-coupled, absorbance 340 nm; type: biochemical; details: mutant PKR K410E enzyme activation
Chain of PKR K410E (P30613 whole entry K410E): as the sequence (P30613 whole entry R510Q) above, with K410E, Q510R counted along it
Description: as §1, §2, §3, §4

PKR WT = PKR WT (Homo sapiens, UniProt P30613); assay: PKR enzyme assay (WT), LDH-coupled, absorbance 340 nm; type: biochemical; details: wild type PKR enzyme activation
Chain of PKR WT (P30613 whole entry): as the sequence (P30613 whole entry R510Q) above, with Q510R counted along it
Description: as §1, §2, §3, §4

Compound | AC50 (RBCs) | AC50 (PK R510Q) | AC50 (PKR K410E) | AC50 (PKR WT) | PK R510Q AC50 (PK R510Q) | PKR K410E AC50 (PKR K410E) | PKR WT AC50 (PKR WT) | Cell based ATP assay AC50 (RBCs)
Cn1cc(S(=O)(=O)c2ccc3c(c2)c2cnn(Cc4cccc(C(N)=O)c4)c(=O)c2n3C)cn1 [Cpd 55] | > 1000 nM | < 300 nM | < 300 nM | 301 to 800 nM |  |  |  | 
COc1cccc(Cn2ncc3c4nn(Cc5ccccc5)cc4n(C)c3c2=O)c1 [Cpd 28] |  | < 300 nM | 301 to 800 nM | 301 to 800 nM |  |  |  | 
COc1cccc(Cn2ncc3c4c(cnn4C)n(C)c3c2=O)c1 [Cpd 27] |  |  |  |  | No Fit | No Fit | No Fit | 
COc1cccc(Cn2ncc3c(c(C)n4cc(C)sc34)c2=O)c1 [Cpd 9] | > 1000 nM | < 300 nM | < 300 nM | < 300 nM |  |  |  | 
Cn1c2cc(S(=O)(=O)c3cc[nH]n3)ccc2c2cnn(Cc3cccc(C(N)=O)c3)c(=O)c21 [Cpd 50] | > 1000 nM | < 300 nM | > 800 nM | 301 to 800 nM |  |  |  | 
Cc1c2c(=O)n(Cc3cccc(N)n3)ncc2c2sc(Cc3cc[nH]n3)cn12 [Cpd 17] | ≤ 1000 nM | < 300 nM | < 300 nM | < 300 nM |  |  |  | 
Cc1c2c(=O)n(Cc3ccc4[nH]ncc4c3)ncc2c2sc(Cc3ccccn3)cn12 [Cpd 18] | ≤ 1000 nM | < 300 nM | < 300 nM | < 300 nM |  |  |  | 
Cc1cn2c(s1)c(C)c1c(=O)n(Cc3cc[nH]n3)ncc12 [Cpd 22] |  | > 800 nM | > 800 nM | > 800 nM |  |  |  | No Fit
Cc1c2c(=O)n(Cc3ccn(C)n3)ncc2c2sc(CO)cn12 [Cpd 14] | ≤ 1000 nM | < 300 nM | < 300 nM | < 300 nM |  |  |  | 
COc1cccc(Cn2ncc3c(c(C(N)=O)n4cc(C)sc34)c2=O)c1 [Cpd 12] | > 1000 nM | < 300 nM | < 300 nM | < 300 nM |  |  |  | 
Cc1c2c(=O)n(Cc3cscn3)ncc2c2sc(Cc3cccc4c[nH]nc34)cn12 [Cpd 20] | ≤ 1000 nM | < 300 nM | < 300 nM | < 300 nM |  |  |  | 
Cc1cccc(Cn2ncc3c4sc(Cc5ncco5)cc4n(C)c3c2=O)c1 [Cpd 5] | ≤ 1000 nM | < 300 nM | < 300 nM | < 300 nM |  |  |  | 
COc1cccc(Cn2ncc3c(c(C#CCO)n4cc(C)sc34)c2=O)c1 [Cpd 13] |  | 301 to 800 nM | 301 to 800 nM | 301 to 800 nM |  |  |  | No Fit
Cc1c2c(=O)n(Cc3ccn(C)n3)ncc2n2cc(Cc3cc[nH]n3)sc12 [Cpd 24] | ≤ 1000 nM | < 300 nM | < 300 nM | < 300 nM |  |  |  | 
Cn1ccc(Cn2ncc3c4ccc(Cc5cscn5)cc4n(C)c3c2=O)n1 [Cpd 58] | ≤ 1000 nM | < 300 nM | < 300 nM | < 300 nM |  |  |  | 
Cc1c2c(=O)n(Cc3ccccn3)ncc2c2sc(Cc3cscn3)cn12 [Cpd 16] | ≤ 1000 nM | < 300 nM | < 300 nM | < 300 nM |  |  |  | 
COc1cccc(Cn2ncc3c(c(Br)n4cc(C)sc34)c2=O)c1 [Cpd 68] | > 1000 nM | < 300 nM | < 300 nM | < 300 nM |  |  |  | 
Cn1c2cc(Cc3cn[nH]c3)sc2c2cnn(Cc3cccc4[nH]ncc34)c(=O)c21 [Cpd 8] | ≤ 1000 nM | < 300 nM |  | < 300 nM |  | No Fit |  | 

Compound | AC50 (RBCs) | AC50 (PK R510Q) | AC50 (PKR K410E) | AC50 (PKR WT) | PK R510Q AC50 (PK R510Q) | PKR K410E AC50 (PKR K410E) | PKR WT AC50 (PKR WT) | Cell based ATP assay AC50 (RBCs)
COC(=O)c1ccc2c3cnn(Cc4cccc(OC)c4)c(=O)c3n(C)c2c1 [Cpd 40] |  |  | < 300 nM |  | No Fit |  | No Fit | 
Cn1c2ccc(S(=O)(=O)c3ccccc3)cc2c2cnn(Cc3cccc(C(N)=O)c3)c(=O)c21 [Cpd 57] | > 1000 nM | < 300 nM | > 800 nM | 301 to 800 nM |  |  |  | 
Cn1c2cc(S(=O)(=O)c3ccccc3)ccc2c2cnn(Cc3cccc(C(N)=O)c3)c(=O)c21 [Cpd 54] | > 1000 nM | < 300 nM | < 300 nM | 301 to 800 nM |  |  |  | 
Cc1cn2c(C)c3c(=O)n(Cc4ccn(C)n4)ncc3c2s1 [Cpd 21] | ≤ 1000 nM | < 300 nM | < 300 nM | < 300 nM |  |  |  | 
COc1cccc(Cn2ncc3c(c(C(F)(F)F)n4cc(C)sc34)c2=O)c1 [Cpd 10] |  |  |  | < 300 nM | No Fit | No Fit |  | No Fit
Cc1c2c(=O)n(Cc3cccc(C#N)c3)ncc2c2sc(Cc3ncco3)cn12 [Cpd 19] | > 1000 nM | > 800 nM | < 300 nM | 301 to 800 nM |  |  |  | 
Cc1c2c(=O)n(Cc3ccn(C)n3)ncc2n2cc(CO)sc12 [Cpd 23] | > 1000 nM | > 800 nM | > 800 nM | > 800 nM |  |  |  | 
Cn1c2cc(Cc3cccc4cn[nH]c34)sc2c2cnn(Cc3cscn3)c(=O)c21 [Cpd 6] | ≤ 1000 nM | < 300 nM | < 300 nM | < 300 nM |  |  |  | 
COc1cccc(Cn2ncc3c(c(C#N)n4cc(C)sc34)c2=O)c1 [Cpd 11] |  | < 300 nM | < 300 nM | < 300 nM |  |  |  | No Fit
Cn1cc(S(=O)(=O)c2ccc3c4cnn(Cc5cccc(C(N)=O)c5)c(=O)c4n(C)c3c2)cn1 [Cpd 56] | > 1000 nM | < 300 nM | < 300 nM | 301 to 800 nM |  |  |  | 
COc1cccc(Cn2ncc3c4ccc(C#N)cc4n(C)c3c2=O)c1 [Cpd 47] |  | < 300 nM | < 300 nM | 301 to 800 nM |  |  |  | 
Cn1c2cc(S(C)(=O)=O)ccc2c2cnn(Cc3cccc(C(N)=O)c3)c(=O)c21 [Cpd 53] | > 1000 nM | < 300 nM | 301 to 800 nM | 301 to 800 nM |  |  |  | 
Cc1c2c(=O)n(Cc3ccn(C)n3)ncc2c2sc(Cc3cc[nH]n3)cn12 [Cpd 15] | ≤ 1000 nM | < 300 nM | < 300 nM | < 300 nM |  |  |  | 
Cn1ccc(Cn2ncc3c4cc(Cc5cscn5)ncc4n(C)c3c2=O)n1 [Cpd 67] | ≤ 1000 nM | < 300 nM | < 300 nM | < 300 nM |  |  |  | 
COc1cccc(Cn2ncc3c4ccncc4n(C)c3c2=O)c1 [Cpd 64] |  | < 300 nM | 301 to 800 nM | 301 to 800 nM |  |  |  | 
Cn1c2ccc(S(=O)(=O)c3cc[nH]n3)cc2c2cnn(Cc3cccc(C(N)=O)c3)c(=O)c21 [Cpd 49] | ≤ 1000 nM | < 300 nM | < 300 nM | < 300 nM |  |  |  | 
COc1cccc(Cn2ncc3c4cccc(Br)c4n(C)c3c2=O)c1 [Cpd 33] |  |  |  |  | No Fit | Inhibition | No Fit | 
Cn1c2cc(Cc3cscn3)sc2c2cnn(Cc3ccccn3)c(=O)c21 [Cpd 7] | ≤ 1000 nM | < 300 nM | < 300 nM | < 300 nM |  |  |  | 
